Assays:
[1] = organism: Homo sapiens; experiment: Selectivity factor, ratio of IC50 for VEGFR2 (unknown origin) to IC50 for N-terminal FLAG-tagged recombinant BRAF-V600E (unknown origin) expressed in baculovirus system
[2] = target: T1, Vascular endothelial growth factor receptor 2 (Homo sapiens, UniProt P35968); experiment: Inhibition of VEGFR2 (unknown origin) using biotinylated poly-GluTyr (4:1) as substrate pretreated for 5 mins before substrate addition measured after overnight incubation
[3] = target: T2, Serine/threonine-protein kinase B-raf (Homo sapiens, UniProt P15056, V600E); experiment: Inhibition of N-terminal FLAG-tagged recombinant BRAF V600E mutant (unknown origin) expressed in baculovirus system preincubated for 10 mins before substrate addition measured after 20 mins by scintillation counting
T2 sequence (P15056 2-766 V600E limits assumed): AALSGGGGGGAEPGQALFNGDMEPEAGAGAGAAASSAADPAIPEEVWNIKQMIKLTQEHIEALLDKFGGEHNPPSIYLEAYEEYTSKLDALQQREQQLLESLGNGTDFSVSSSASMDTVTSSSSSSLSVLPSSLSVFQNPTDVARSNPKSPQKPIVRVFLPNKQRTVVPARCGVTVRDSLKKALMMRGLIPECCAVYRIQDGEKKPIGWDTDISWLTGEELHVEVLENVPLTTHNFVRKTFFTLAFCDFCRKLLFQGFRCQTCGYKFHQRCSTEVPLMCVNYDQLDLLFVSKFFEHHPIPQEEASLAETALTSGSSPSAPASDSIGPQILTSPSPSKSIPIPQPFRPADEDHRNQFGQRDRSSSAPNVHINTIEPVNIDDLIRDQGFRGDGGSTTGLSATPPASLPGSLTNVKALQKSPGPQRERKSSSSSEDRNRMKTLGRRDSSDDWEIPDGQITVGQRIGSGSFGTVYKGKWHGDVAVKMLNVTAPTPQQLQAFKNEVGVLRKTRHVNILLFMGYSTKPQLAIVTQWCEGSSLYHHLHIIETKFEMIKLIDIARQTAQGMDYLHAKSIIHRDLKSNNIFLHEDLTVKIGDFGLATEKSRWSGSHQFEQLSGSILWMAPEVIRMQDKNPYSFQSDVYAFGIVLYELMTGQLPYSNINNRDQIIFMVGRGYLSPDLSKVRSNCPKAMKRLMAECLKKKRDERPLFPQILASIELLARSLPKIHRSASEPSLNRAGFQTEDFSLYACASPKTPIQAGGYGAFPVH

[4] = target: T2, Serine/threonine-protein kinase B-raf; experiment: Inhibition of BRAF V600E mutant in human HT-29 cells assessed as phosphorylation of MEK; type: cell-based
[5] = tested on: Mus musculus; experiment: AUC (0 to 8 hrs) in mouse at 10 mg/kg, po; type: ADME, organism-based, Blood; set-up: time < 8 hr, dose 10 mg/kg, route oral; conditions: in vivo
[6] = target: T1, Vascular endothelial growth factor receptor 2; experiment: Inhibition of VEGFR2 (unknown origin)
[7] = target: T2, Serine/threonine-protein kinase B-raf; experiment: Inhibition of BRAF V600E mutant (unknown origin)

T1 sequence (P35968 whole entry): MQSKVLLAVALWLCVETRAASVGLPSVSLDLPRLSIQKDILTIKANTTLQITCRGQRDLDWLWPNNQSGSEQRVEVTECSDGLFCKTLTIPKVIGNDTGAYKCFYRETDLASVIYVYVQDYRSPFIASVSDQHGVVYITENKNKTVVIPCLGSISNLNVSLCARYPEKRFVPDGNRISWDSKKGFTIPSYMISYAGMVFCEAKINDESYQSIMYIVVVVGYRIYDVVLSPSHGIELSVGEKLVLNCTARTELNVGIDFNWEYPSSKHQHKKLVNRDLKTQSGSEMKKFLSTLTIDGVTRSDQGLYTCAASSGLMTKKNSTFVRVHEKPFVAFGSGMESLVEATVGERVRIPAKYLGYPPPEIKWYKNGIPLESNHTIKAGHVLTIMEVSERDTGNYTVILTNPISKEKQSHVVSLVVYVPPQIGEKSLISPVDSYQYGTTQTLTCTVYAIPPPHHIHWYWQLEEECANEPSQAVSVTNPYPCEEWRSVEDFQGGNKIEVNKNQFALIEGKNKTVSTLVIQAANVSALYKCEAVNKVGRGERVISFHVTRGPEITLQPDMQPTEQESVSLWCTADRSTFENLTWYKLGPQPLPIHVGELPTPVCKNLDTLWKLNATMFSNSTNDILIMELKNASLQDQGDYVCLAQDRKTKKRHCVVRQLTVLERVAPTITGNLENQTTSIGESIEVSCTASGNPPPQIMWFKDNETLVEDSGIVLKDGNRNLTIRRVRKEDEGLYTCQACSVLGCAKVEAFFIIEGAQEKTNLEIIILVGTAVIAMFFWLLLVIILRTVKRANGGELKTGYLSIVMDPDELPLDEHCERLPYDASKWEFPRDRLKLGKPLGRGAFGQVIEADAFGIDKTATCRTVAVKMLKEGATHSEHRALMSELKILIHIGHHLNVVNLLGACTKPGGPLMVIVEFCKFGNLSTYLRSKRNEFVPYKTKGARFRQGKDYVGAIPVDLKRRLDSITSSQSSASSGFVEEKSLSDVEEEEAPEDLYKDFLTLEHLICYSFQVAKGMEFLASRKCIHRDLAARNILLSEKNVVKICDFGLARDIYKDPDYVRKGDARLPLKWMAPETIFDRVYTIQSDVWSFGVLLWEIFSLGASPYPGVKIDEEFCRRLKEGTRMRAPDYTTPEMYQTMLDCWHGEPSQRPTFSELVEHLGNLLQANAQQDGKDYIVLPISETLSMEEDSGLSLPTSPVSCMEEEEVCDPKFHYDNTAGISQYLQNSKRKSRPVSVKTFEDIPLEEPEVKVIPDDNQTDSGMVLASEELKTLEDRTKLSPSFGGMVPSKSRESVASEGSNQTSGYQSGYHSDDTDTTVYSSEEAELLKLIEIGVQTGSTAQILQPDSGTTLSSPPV

## CC(C)(C#N)c1cccc(C(=O)Nc2cccc(Oc3ccc4nc(NC(=O)C5CC5)sc4c3C(=O)O)c2)c1
[1]
  Ratio IC50: 0.051
[2]
  IC50: 15 nM
[3]
  IC50: 290 nM

## N#Cc1c(Oc2cccc(NC(=O)Nc3ccccc3C(F)(F)F)c2)ccc2nc(NC(=O)C3CC3)sc12
[4]
  IC50: > 500 nM
[1]
  Ratio IC50: 6.3
[5]
  AUC: 0.058 µg·h/mL

## N#Cc1c(Oc2cccc(NC(=O)Nc3cccc(C(F)(F)F)c3)c2)ccc2nc(NC(=O)C3CC3)sc12
[4]
  IC50: 75 nM
[1]
  Ratio IC50: 19
[2]
  IC50: 350 nM
[3]
  IC50: 18 nM
[5]
  AUC: 0.099 µg·h/mL

## COC(=O)c1c(Oc2cccc(NC(=O)c3cccc(C(C)(C)C#N)c3)c2)ccc2nc(NC(=O)C3CC3)sc12
[4]
  IC50: 24 nM
[1]
  Ratio IC50: 2.8

## N#Cc1c(Oc2cccc(NC(=O)Cc3cccc(C(F)(F)F)c3)c2)ccc2nc(NC(=O)C3CC3)sc12
[4]
  IC50: 360 nM
[1]
  Ratio IC50: 120
[5]
  AUC: 3.78 µg·h/mL

## CC(C)(C#N)c1cccc(C(=O)Nc2cccc(Oc3ccc4nc(NC(=O)C5CC5)sc4c3CO)c2)c1
[4]
  IC50: 170 nM
[1]
  Ratio IC50: 0.31

## N#Cc1c(Oc2cccc(NC(=O)Nc3ccc(C(F)(F)F)cc3)c2)ccc2nc(NC(=O)C3CC3)sc12
[4]
  IC50: 110 nM
[1]
  Ratio IC50: 18
[5]
  AUC: 0.431 µg·h/mL

## CC(C)(C#N)c1cccc(C(=O)Nc2cccc(Oc3ccc4nc(NC(=O)C5CC5)sc4c3)c2)c1
[1]
  Ratio IC50: 0.56

## N#Cc1c(Oc2cccc(NC(=O)Cc3ccc(C(F)(F)F)cc3)c2)ccc2nc(NC(=O)C3CC3)sc12
[4]
  IC50: 320 nM
[1]
  Ratio IC50: 20
[5]
  AUC: 0.123 µg·h/mL

## CC(C)(C#N)c1cccc(C(=O)Nc2cccc(Oc3ccc4nc(NC(=O)C5CC5)sc4c3C#N)c2)c1
[4]
  IC50: 34 nM
[1]
  Ratio IC50: 5.8
[5]
  AUC: 0.149 µg·h/mL

## CC(C)(C#N)c1cccc(C(=O)Nc2cccc(Oc3ccc4nc(NC(=O)C5CC5)sc4c3[N+](=O)[O-])c2)c1
[4]
  IC50: 29 nM
[1]
  Ratio IC50: 2.8

## N#Cc1c(Oc2cccc(NC(=O)Cc3ccccc3C(F)(F)F)c2)ccc2nc(NC(=O)C3CC3)sc12
[4]
  IC50: > 500 nM
[1]
  Ratio IC50: 7.1
[5]
  AUC: 0.255 µg·h/mL

## N#Cc1c(Oc2ccc(F)c(NC(=O)Nc3cccc(C(F)(F)F)c3)c2)ccc2nc(NC(=O)C3CC3)sc12
[4]
  IC50: 22 nM
[1]
  Ratio IC50: 15

## N#CC1(c2cccc(C(=O)Nc3cc(Oc4ccc5nc(NC(=O)C6CC6)sc5n4)ccc3F)c2Cl)CC1
[6]
  IC50: 2.8 nM
[7]
  IC50: 5.6 nM

## N#Cc1c(Oc2ccc(F)c(NC(=O)Nc3ccc(C(F)(F)F)cc3)c2)ccc2nc(NC(=O)C3CC3)sc12
[4]
  IC50: 81 nM
[1]
  Ratio IC50: 25
[5]
  AUC: 0.158 µg·h/mL
